Data from patent US20020137929A1, “1 - (3-heterocyclylphenyl) isothiourea, -isourea, -guanidine and -amidine herbicidal agents” (Intellectual Property Department, BASF Aktiengesellschaft, priority 1998, published 2002).

Assays:
[1] = system: IPOHE (Morningglory, Ivyleaf); test: Postemergence herbicidal evaluation; type: in vivo, Ipomoea hederacea; details: for IPOHE herbicidal rating: postemergence
How it was run: (§1)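 Visual 0-9 injury score (stand, vigor, malformation, size, chlorosis, appearance vs untreated) taken four to five weeks post-spray, averaged across repeat tests. Test plants about two weeks old; foliar spray of acetone/water (1:1) with 0.5% surfactant delivering ~0.0156-0.500 kg active/ha.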

ECHCG (Barnyardgrass) = test: Preemergence herbicidal evaluation; type: in vivo, Echinochloa crus-galli; details: rated 4-5 weeks after treatment
How it was run: (§2)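 Steps: mix seeds into potting soil; plant atop ~1 inch soil; spray compound in aqueous acetone (~0.0156-0.500 kg/ha equivalent); maintain in greenhouse with watering; rate visually 0-9 versus control at 4-5 weeks.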

ZEAMX (Corn, Field) = test: Preemergence herbicidal evaluation; type: in vivo, Zea mays; details: rated 4-5 weeks after treatment
How it was run: as §2

CYPIR (Rice Flatsedge) = test: Preemergence weed control under flooded paddy conditions; type: in vivo, Cyperus iria; details: rated 3-4 weeks after treatment
How it was run: (§3)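 Visual injury scored 0-9 against control three to four weeks post-treatment, greenhouse-grown. Application: acetone/water (50/50) solutions dosed directly into flood water (1.5-3 cm over silt loam, planted top 0.5 cm), roughly 0.0313 to 0.500 kg/ha active ingredient.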

[2] = system: ECHORC (Watergrass (Calif.)); test: Postemergence weed control under flooded paddy conditions; type: in vivo, Echinochloa oryzoides; details: postemergence weeds
How it was run: (§4)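 Flood-water application, about 0.0313–0.500 kg/ha a.i. in aqueous/acetone 50/50 v/v; water depth 1.5–3 cm throughout. Weeds 3–5 cm, rice 1.5–2.5 leaf. Greenhouse; 0–9 visual rating vs control at 3–4 wk.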

SETVI (Foxtail, Green) [3] = test: Preemergence herbicidal evaluation; type: in vivo, Setaria viridis; details: rated 4-5 weeks after treatment
How it was run: as §2

[4] = system: TRZAWR (Wheat, Winter, cv Riband); test: Postemergence herbicidal evaluation; type: in vivo, Triticum aestivum; details: for TRZAWR herbicidal rating: postemergence
How it was run: as §1

[5] = system: ECHORC (Watergrass (Calif.)); test: Preemergence weed control under flooded paddy conditions; type: in vivo, Echinochloa oryzoides; details: rated 3-4 weeks after treatment
How it was run: as §3

[6] = system: SAGPY (Arrowhead (Pygmaea)); test: Postemergence weed control under flooded paddy conditions; type: in vivo, Sagittaria pygmaea; details: postemergence weeds
How it was run: as §4

SETVI (Foxtail, Green) [7] = test: Postemergence herbicidal evaluation; type: in vivo, Setaria viridis; details: for SETVI herbicidal rating: postemergence
How it was run: as §1

[8] = system: IPOHE (Morningglory, Ivyleaf); test: Preemergence herbicidal evaluation; type: in vivo, Ipomoea hederacea; details: rated 4-5 weeks after treatment
How it was run: as §2

ABUTH (Velvetleaf) = test: Preemergence herbicidal evaluation; type: in vivo, Abutilon theophrasti; details: rated 4-5 weeks after treatment
How it was run: as §2

GALAP (Galium) = test: Postemergence herbicidal evaluation; type: in vivo, Galium aparine; details: for GALAP herbicidal rating: postemergence
How it was run: as §1

[9] = Rate 0.1250 kg/ha, rated 3 to 4 weeks after treatment
[10] = Rate 0.2500 kg/ha, rated 3 to 4 weeks after treatment
[11] = rate 0.1250 kg/ha, 3-4 weeks after treatment
[12] = rate 0.2500 kg/ha, 3-4 weeks after treatment

Cn1c(C(F)(F)F)cc(=O)n(-c2cc(N=C3SCC(=O)N3C3CCOC3=O)c(Cl)cc2F)c1=O (stereo not drawn) [Compound 73]
0.0: Preemergence herbicidal rating ECHCG (ECHCG (Barnyardgrass); rate 0.0156 kg/ha) | Preemergence herbicidal rating ECHCG (ECHCG (Barnyardgrass); rate 0.0313 kg/ha) | Preemergence herbicidal rating ECHCG (ECHCG (Barnyardgrass); rate 0.0625 kg/ha) | Preemergence herbicidal rating ECHCG (ECHCG (Barnyardgrass); rate 0.1250 kg/ha) | Preemergence herbicidal rating ZEAMX (ZEAMX (Corn, Field); rate 0.0156 kg/ha) | Preemergence herbicidal rating ZEAMX (ZEAMX (Corn, Field); rate 0.0313 kg/ha) | CYPIR herbicidal effect rating (CYPIR (Rice Flatsedge); 0.1250 kg/ha) | Preemergence herbicidal rating SETVI (SETVI (Foxtail, Green) [3]; rate 0.0156 kg/ha) | Preemergence herbicidal rating SETVI (SETVI (Foxtail, Green) [3]; rate 0.0625 kg/ha) | Preemergence herbicidal rating IPOHE ([8]; rate 0.0156 kg/ha) | Preemergence herbicidal rating IPOHE ([8]; rate 0.0625 kg/ha)
2.0: SETVI herbicidal rating (SETVI (Foxtail, Green) [7]; rate 0.0315 kg/ha)
4.0: Preemergence herbicidal rating ECHCG (ECHCG (Barnyardgrass); rate 0.2500 kg/ha) | Preemergence herbicidal rating ZEAMX (ZEAMX (Corn, Field); rate 0.1250 kg/ha) | TRZAWR herbicidal rating ([4]; rate 0.0315 kg/ha) | Herbicidal rating SAGPY [6, 10]
9.0: IPOHE herbicidal rating ([1]; rate 0.0158 kg/ha) | IPOHE herbicidal rating ([1]; rate 0.0315 kg/ha) | IPOHE herbicidal rating ([1]; rate 0.0630 kg/ha) | Preemergence herbicidal rating SETVI (SETVI (Foxtail, Green) [3]; rate 0.1250 kg/ha) | Preemergence herbicidal rating SETVI (SETVI (Foxtail, Green) [3]; rate 0.2500 kg/ha) | Preemergence herbicidal rating ABUTH (ABUTH (Velvetleaf); rate 0.0156 kg/ha) | Preemergence herbicidal rating ABUTH (ABUTH (Velvetleaf); rate 0.0313 kg/ha) | Preemergence herbicidal rating ABUTH (ABUTH (Velvetleaf); rate 0.0625 kg/ha) | Preemergence herbicidal rating ABUTH (ABUTH (Velvetleaf); rate 0.1250 kg/ha) | Preemergence herbicidal rating ABUTH (ABUTH (Velvetleaf); rate 0.2500 kg/ha)
7.0: Preemergence herbicidal rating ZEAMX (ZEAMX (Corn, Field); rate 0.2500 kg/ha) | Herbicidal rating ECHORC [2, 10] | ECHORC herbicidal effect rating ([5]; 0.2500 kg/ha) | SETVI herbicidal rating (SETVI (Foxtail, Green) [7]; rate 0.0630 kg/ha) | Preemergence herbicidal rating IPOHE ([8]; rate 0.2500 kg/ha) | GALAP herbicidal rating (GALAP (Galium); rate 0.0315 kg/ha)
5.0: TRZAWR herbicidal rating ([4]; rate 0.0630 kg/ha)
3.0: Herbicidal rating ECHORC [2, 9] | ECHORC herbicidal effect rating ([5]; 0.1250 kg/ha) | Herbicidal rating SAGPY [6, 9] | GALAP herbicidal rating (GALAP (Galium); rate 0.0158 kg/ha)
1.0: Preemergence herbicidal rating ZEAMX (ZEAMX (Corn, Field); rate 0.0625 kg/ha) | Preemergence herbicidal rating SETVI (SETVI (Foxtail, Green) [3]; rate 0.0313 kg/ha) | SETVI herbicidal rating (SETVI (Foxtail, Green) [7]; rate 0.0158 kg/ha) | Preemergence herbicidal rating IPOHE ([8]; rate 0.0313 kg/ha) | Preemergence herbicidal rating IPOHE ([8]; rate 0.1250 kg/ha)
3.5: TRZAWR herbicidal rating ([4]; rate 0.0158 kg/ha)
6.0: CYPIR herbicidal effect rating (CYPIR (Rice Flatsedge); 0.2500 kg/ha) | GALAP herbicidal rating (GALAP (Galium); rate 0.0630 kg/ha)

CCOC(=O)CCN1C(=O)CSC1=Nc1cc(-n2c(=O)cc(C(F)(F)F)n(C)c2=O)c(Cl)cc1Cl [Compound 32, Ethyl 2-{{2,4-dichloro-5-[3,6-dihydro-3-methyl-2,6-dioxo-4-(trifluoromethyl)-1(2H)-pyrimidinyl]-phenyl}imino}-4-oxo-3-thiazolidinepropionate]
2.0: Postemergence herbicidal rating TRZAWR ([4]; Rate 0.0158 kg/ha) | Postemergence herbicidal rating GALAP (GALAP (Galium); Rate 0.1250 kg/ha)
1.5: Preemergence herbicidal rating ABUTH (ABUTH (Velvetleaf); rate 0.0625 kg/ha)
0.0: Preemergence herbicidal rating ECHCG (ECHCG (Barnyardgrass); rate 0.0156 kg/ha) | Preemergence herbicidal rating ECHCG (ECHCG (Barnyardgrass); rate 0.0313 kg/ha) | Preemergence herbicidal rating ECHCG (ECHCG (Barnyardgrass); rate 0.0625 kg/ha) | Preemergence herbicidal rating ECHCG (ECHCG (Barnyardgrass); rate 0.2500 kg/ha) | Preemergence herbicidal rating ZEAMX (ZEAMX (Corn, Field); rate 0.0156 kg/ha) | Preemergence herbicidal rating ZEAMX (ZEAMX (Corn, Field); rate 0.0313 kg/ha) | Preemergence herbicidal rating ZEAMX (ZEAMX (Corn, Field); rate 0.0625 kg/ha) | Herbicidal rating CYPIR (CYPIR (Rice Flatsedge); 0.1250 kg/ha) | Herbicidal rating CYPIR (CYPIR (Rice Flatsedge); 0.2500 kg/ha) | Preemergence herbicidal rating SETVI (SETVI (Foxtail, Green) [3]; rate 0.0156 kg/ha) | Preemergence herbicidal rating SETVI (SETVI (Foxtail, Green) [3]; rate 0.0313 kg/ha) | Herbicidal rating SAGPY [6, 11] | Herbicidal rating SAGPY [6, 12] | Postemergence herbicidal rating SETVI (SETVI (Foxtail, Green) [7]; Rate 0.0158 kg/ha) | Postemergence herbicidal rating SETVI (SETVI (Foxtail, Green) [7]; Rate 0.0313 kg/ha) | Postemergence herbicidal rating SETVI (SETVI (Foxtail, Green) [7]; Rate 0.0625 kg/ha) | Preemergence herbicidal rating IPOHE ([8]; rate 0.0156 kg/ha) | Preemergence herbicidal rating IPOHE ([8]; rate 0.0313 kg/ha) | Preemergence herbicidal rating IPOHE ([8]; rate 0.2500 kg/ha) | Preemergence herbicidal rating ABUTH (ABUTH (Velvetleaf); rate 0.0156 kg/ha) | Postemergence herbicidal rating GALAP (GALAP (Galium); Rate 0.0158 kg/ha) | Postemergence herbicidal rating GALAP (GALAP (Galium); Rate 0.0313 kg/ha) | Postemergence herbicidal rating GALAP (GALAP (Galium); Rate 0.0625 kg/ha)
2.5: Preemergence herbicidal rating ABUTH (ABUTH (Velvetleaf); rate 0.0313 kg/ha)
6.0: Preemergence herbicidal rating ZEAMX (ZEAMX (Corn, Field); rate 0.5000 kg/ha) | Herbicidal rating ECHORC [2, 12] | Herbicidal rating ECHORC ([5]; 0.2500 kg/ha)
1.0: Preemergence herbicidal rating ECHCG (ECHCG (Barnyardgrass); rate 0.5000 kg/ha) | Preemergence herbicidal rating IPOHE ([8]; rate 0.5000 kg/ha)
4.0: Postemergence herbicidal rating TRZAWR ([4]; Rate 0.0625 kg/ha) | Postemergence herbicidal rating TRZAWR ([4]; Rate 0.1250 kg/ha)
9.0: Postemergence herbicidal rating IPOHE ([1]; Rate 0.0158 kg/ha) | Postemergence herbicidal rating IPOHE ([1]; Rate 0.0313 kg/ha) | Postemergence herbicidal rating IPOHE ([1]; Rate 0.0625 kg/ha) | Postemergence herbicidal rating IPOHE ([1]; Rate 0.1250 kg/ha) | Preemergence herbicidal rating SETVI (SETVI (Foxtail, Green) [3]; rate 0.2500 kg/ha) | Preemergence herbicidal rating SETVI (SETVI (Foxtail, Green) [3]; rate 0.5000 kg/ha) | Preemergence herbicidal rating ABUTH (ABUTH (Velvetleaf); rate 0.1250 kg/ha) | Preemergence herbicidal rating ABUTH (ABUTH (Velvetleaf); rate 0.2500 kg/ha) | Preemergence herbicidal rating ABUTH (ABUTH (Velvetleaf); rate 0.5000 kg/ha)
3.5: Preemergence herbicidal rating SETVI (SETVI (Foxtail, Green) [3]; rate 0.1250 kg/ha) | Postemergence herbicidal rating TRZAWR ([4]; Rate 0.0313 kg/ha)
0.5: Preemergence herbicidal rating ECHCG (ECHCG (Barnyardgrass); rate 0.1250 kg/ha) | Preemergence herbicidal rating ZEAMX (ZEAMX (Corn, Field); rate 0.1250 kg/ha) | Preemergence herbicidal rating SETVI (SETVI (Foxtail, Green) [3]; rate 0.0625 kg/ha) | Preemergence herbicidal rating IPOHE ([8]; rate 0.0625 kg/ha) | Preemergence herbicidal rating IPOHE ([8]; rate 0.1250 kg/ha)
4.5: Preemergence herbicidal rating ZEAMX (ZEAMX (Corn, Field); rate 0.2500 kg/ha)
7.0: Postemergence herbicidal rating SETVI (SETVI (Foxtail, Green) [7]; Rate 0.1250 kg/ha)
3.0: Herbicidal rating ECHORC [2, 11] | Herbicidal rating ECHORC ([5]; 0.1250 kg/ha)
